From BigSolDB 2.1

CC(=O)N1CN(C(C)=O)CN(C(C)=O)C1
solubility (mole fraction)
Conditions	298 K	303 K	308 K	313 K	318 K
in acetonitrile	0.0478	0.0695	0.102	0.142	0.202
in ethyl acetate	0.0153	0.0178	0.0198	0.0236	0.0271
in methanol	0.204	0.238	0.283	0.335	0.395
in water	0.00434	0.00612	0.0085	0.0125	0.018
